# Active and inactive are the calls of the source.
# Columns and labels:
# [1] = target: Cytochrome P450 3A4 (Homo sapiens, UniProt P08684); conditions: Potency;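 note: confirmatory qHTS run detecting inhibitors and substrates of CYP3A4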
# [2] = system: P388/ADR; test: cells; type: functional; conditions: Mus musculus
# [3] = system: SN12K1; test: cells; type: functional; conditions: Homo sapiens
# [4] = system: P388; test: cells; type: functional; conditions: Mus musculus
# [5] = P. falciparum Dd2 growth inhibitors, dose response, SYBR Green, cherry-picked samples (AID 1159567); type: functional, cell-based
# [6] = target: T1, Replicative DNA helicase DnaB (Mycobacterium tuberculosis, UniProt P9WMR3); test: DnaB intein splicing inhibitors, dose response, biochemical, cell-free fluorescence (AID 449749); type: functional
# T1 sequence (P9WMR3 whole entry): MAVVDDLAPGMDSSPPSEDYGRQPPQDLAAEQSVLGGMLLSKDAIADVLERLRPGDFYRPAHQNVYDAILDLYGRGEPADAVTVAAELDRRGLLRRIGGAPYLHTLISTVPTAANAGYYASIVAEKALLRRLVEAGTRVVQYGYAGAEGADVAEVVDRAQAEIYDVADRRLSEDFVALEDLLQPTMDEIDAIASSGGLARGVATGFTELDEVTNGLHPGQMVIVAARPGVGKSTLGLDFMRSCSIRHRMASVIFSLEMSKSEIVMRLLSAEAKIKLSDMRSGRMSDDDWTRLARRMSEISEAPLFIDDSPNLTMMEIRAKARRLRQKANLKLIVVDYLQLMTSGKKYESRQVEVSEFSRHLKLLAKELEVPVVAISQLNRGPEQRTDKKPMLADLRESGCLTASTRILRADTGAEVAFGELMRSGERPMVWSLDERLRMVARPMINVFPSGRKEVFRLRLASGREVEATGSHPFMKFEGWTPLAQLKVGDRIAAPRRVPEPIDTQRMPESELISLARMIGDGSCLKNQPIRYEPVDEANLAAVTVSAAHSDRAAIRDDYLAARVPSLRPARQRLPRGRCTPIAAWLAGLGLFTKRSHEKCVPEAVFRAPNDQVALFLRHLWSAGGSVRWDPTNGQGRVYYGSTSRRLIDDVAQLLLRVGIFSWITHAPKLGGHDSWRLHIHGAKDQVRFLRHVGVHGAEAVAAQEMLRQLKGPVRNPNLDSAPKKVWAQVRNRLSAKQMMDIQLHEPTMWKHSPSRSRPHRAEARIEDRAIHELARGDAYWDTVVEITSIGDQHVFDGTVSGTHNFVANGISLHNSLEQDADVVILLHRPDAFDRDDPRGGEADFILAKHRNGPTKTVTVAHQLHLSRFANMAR
# [7] = target: T2, Protein RecA (Mycobacterium tuberculosis, UniProt P9WHJ3); test: Fluorescence Cell-Free Homogeneous Dose Retest to Identify Inhibitors of RecA-Intein Splicing Activity. [Related pubchem assays (depositor defined):AID2097, AID2223, AID489010, AID492950]; type: functional
# T2 sequence (P9WHJ3 whole entry): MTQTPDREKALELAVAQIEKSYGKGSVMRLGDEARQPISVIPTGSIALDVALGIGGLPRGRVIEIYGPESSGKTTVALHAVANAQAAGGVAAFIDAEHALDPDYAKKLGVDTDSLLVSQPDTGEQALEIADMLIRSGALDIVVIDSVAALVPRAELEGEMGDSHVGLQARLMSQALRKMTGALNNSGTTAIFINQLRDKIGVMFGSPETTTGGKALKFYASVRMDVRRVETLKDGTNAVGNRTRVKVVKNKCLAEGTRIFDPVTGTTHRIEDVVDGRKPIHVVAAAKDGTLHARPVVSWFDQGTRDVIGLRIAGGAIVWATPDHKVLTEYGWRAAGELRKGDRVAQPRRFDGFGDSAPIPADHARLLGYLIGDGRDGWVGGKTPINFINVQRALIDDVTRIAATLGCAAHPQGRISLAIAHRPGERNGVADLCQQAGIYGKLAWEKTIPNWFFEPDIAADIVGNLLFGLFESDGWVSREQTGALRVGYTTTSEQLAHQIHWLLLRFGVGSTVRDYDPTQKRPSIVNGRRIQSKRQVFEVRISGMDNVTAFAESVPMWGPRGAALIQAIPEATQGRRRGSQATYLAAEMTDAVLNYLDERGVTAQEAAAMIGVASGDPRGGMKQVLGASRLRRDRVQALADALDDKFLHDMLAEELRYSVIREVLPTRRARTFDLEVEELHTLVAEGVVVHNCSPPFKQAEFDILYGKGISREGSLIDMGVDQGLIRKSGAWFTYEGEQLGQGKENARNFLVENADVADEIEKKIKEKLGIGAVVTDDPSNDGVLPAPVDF
# [8] = A549 cell cytotoxicity, dose response, cytotoxicity control, plate reader, cherry-pick, antagonist series (AID 743412); type: functional, cell-based
# [9] = toxicity toward HepG2 liver cells – cell-based, plate reader, cherry-pick, antagonist series, cytotoxicity control, dose response (AID 743416); type: functional
# [10] = blockers of bursicon-stimulated LGR2 cAMP reporter – cell-based, HEK293, CRE-luciferase reporter, cherry pick, set 2, dose response (AID 743343); type: functional;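 note: transfected cells were stimulated with diluted bursicon conditioned medium after compound addition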
# [11] = blockade of melanocortin 4 receptor signaling – cell-based, plate reader, cherry pick, counter-screen for LGR2 antagonist project, dose response (AID 743444); type: functional;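 note: transfected HEK 293 cells stimulated with alpha-MSH peptide; potency of inhibitors of the alpha-MSH evoked signal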
# [12] = viability loss in HEK293 cells – cell-based, plate reader, cherry-picked samples, cytotoxicity control, dose response (AID 743446); type: functional
# [13] = Luminescence Cell-Based Dose Confirmation HTS to Identify Activators of 5'UTR Stem-Loop Driven Alpha-Synuclein mRNA Translation in H4 Neuroglioblastoma Cells. [Related pubchem assays: 1829 (Project Summary), 1814 (Primary HTS)]; type: functional
# [14] = Luminescence Cell-Based Dose Response HTS to Identify Activators of Luciferase Translation or Activity in H4 […] Cells. [Related pubchem assays: 1829 (Project Summary), 1814 (Primary HTS)]; type: functional
# [15] = system: H4; test: Luminescence Cell-Based Dose Response HTS to Identify Activators of 5'UTR Stem-Loop Driven Prion Protein mRNA Translation in H4 Neuroglioblastoma Cells. [Related pubchem assays: 1829 (Project Summary), 1814 (Primary HTS)]; type: functional; conditions: Homo sapiens
# [16] = target: T3, Heat shock factor protein 1 (Mus musculus, UniProt P38532); test: decrease of HSF1-responsive luciferase luminescence – cell-based, NIH3T3, dose retest, confirmation (AID 2382); type: functional;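 note: NIH3T3 fibroblasts with HSF1-driven luciferase reporter stressed by proteasome inhibitor MG132; luminescence from HSF1-driven luciferase expression after 8 hours of MG132 stress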
# T3 sequence (P38532 whole entry): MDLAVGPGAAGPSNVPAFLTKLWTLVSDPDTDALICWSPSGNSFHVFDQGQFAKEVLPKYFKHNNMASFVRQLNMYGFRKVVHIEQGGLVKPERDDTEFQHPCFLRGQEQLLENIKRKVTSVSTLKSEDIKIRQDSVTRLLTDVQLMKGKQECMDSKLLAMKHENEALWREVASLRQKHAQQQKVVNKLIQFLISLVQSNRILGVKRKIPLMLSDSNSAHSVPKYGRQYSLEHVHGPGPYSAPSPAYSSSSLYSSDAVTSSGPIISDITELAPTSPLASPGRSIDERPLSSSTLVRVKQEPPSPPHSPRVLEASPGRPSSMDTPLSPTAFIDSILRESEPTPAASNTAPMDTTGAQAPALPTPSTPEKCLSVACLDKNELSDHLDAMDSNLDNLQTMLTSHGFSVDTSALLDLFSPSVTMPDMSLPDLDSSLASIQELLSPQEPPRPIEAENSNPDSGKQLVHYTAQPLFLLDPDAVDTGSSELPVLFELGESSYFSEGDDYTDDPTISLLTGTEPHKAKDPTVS
# [17] = Luminescence Cell-Based Dose Retest to Confirm Inhibitors of Cancer Stem Cells. [Related pubchem assays (depositor defined):AID2717, AID2721]; type: functional; conditions: Homo sapiens
# [18] = HEK-293T viability loss after treatment – luminescence, T-cell screen hits, cytotoxicity control for TCR NF-kB inhibitor project, dose response (AID 489026); type: functional, cell-based;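 note: cells exposed to compound about 14 hours before the viability readout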
# [19] = target: Large T antigen (Simian virus 40, UniProt P03070); type: functional, Betapolyomavirus macacae;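 note: Confirmatory-stage PubChem screen for compounds that inhibit SV40 T antigen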
# Sequence of Large T antigen (P03070 whole entry): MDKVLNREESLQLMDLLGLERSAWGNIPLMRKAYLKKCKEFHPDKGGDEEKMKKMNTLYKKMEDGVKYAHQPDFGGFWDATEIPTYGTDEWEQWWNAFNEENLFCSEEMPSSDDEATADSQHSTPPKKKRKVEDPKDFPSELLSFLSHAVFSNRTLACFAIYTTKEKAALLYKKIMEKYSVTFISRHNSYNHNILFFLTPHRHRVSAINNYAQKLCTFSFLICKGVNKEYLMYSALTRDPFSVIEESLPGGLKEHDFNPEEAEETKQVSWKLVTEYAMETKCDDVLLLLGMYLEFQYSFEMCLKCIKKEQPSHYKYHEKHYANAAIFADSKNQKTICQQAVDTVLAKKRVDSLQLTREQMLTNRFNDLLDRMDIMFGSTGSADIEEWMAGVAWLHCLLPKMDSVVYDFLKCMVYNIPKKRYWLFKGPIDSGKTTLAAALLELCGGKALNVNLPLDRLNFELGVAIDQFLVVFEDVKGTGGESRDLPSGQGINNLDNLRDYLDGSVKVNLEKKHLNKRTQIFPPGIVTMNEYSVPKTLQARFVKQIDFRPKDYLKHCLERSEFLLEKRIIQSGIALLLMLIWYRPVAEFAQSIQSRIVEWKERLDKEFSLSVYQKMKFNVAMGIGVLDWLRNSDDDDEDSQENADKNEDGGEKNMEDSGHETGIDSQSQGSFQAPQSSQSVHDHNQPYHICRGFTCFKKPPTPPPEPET
# [20] = Trypanosoma cruzi growth suppression in host cells – NIH3T3 host cells, beta-gal luminescence, confirmation (AID 2044); type: functional, cell-based;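 note: intracellular parasites grown in NIH/3T3 mouse fibroblasts as host cells; luminescent beta-galactosidase reporter signal from transgenic T. cruzi replicating inside host cells; inhibitors lower the luminescence signal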
# [21] = NIH3T3 cell viability loss – ATP luminescence, mouse fibroblasts, counter-screen, dose response (AID 2010); type: functional, cell-based;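 note: cells exposed to compound for about 90 hours before reading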
# [22] = system: INS1; test: INS-1E survival protection against cytokine death – cell-based, luminescence, retest, dose response (AID 449756); type: functional; conditions: Rattus norvegicus;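 note: cell death triggered by IL-1 beta plus TNF-alpha plus IFN-gamma mixture; protective hits raise ATP signal compared with cytokine alone wells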
# [23] = target: T3, Heat shock factor protein 1; test: enhancement of HSF1-driven luciferase signal – cell-based, NIH3T3, luminescence, dose retest, confirmation (AID 435004); type: functional;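 note: stress induced by proteasome inhibitor MG132 added 30 min after compound; luciferase reporter driven by HSF1 response element in NIH3T3 cells; actives raise luminescence as potentiators of the MG132 stress response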
# Sequence of Cytochrome P450 3A4 (P08684 whole entry): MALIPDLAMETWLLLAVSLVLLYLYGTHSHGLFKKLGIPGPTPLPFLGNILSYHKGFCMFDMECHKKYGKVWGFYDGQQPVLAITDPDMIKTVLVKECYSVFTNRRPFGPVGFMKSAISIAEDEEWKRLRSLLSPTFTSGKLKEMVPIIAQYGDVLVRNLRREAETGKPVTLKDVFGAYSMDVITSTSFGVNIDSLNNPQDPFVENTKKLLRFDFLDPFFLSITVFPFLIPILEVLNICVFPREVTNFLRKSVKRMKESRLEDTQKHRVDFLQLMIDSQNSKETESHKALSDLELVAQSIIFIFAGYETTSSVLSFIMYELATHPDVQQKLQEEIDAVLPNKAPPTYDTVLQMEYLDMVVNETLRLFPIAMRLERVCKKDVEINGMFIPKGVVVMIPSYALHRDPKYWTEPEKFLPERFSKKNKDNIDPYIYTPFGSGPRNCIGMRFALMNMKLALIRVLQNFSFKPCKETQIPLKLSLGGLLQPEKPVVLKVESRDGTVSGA
structure (smiles),measurement,setting,value
CCCCCCN(C(=O)CCCCCN1C(=O)NC(c2ccc(-c3ccccc3)cc2)C(C(=O)OCc2ccccc2)=C1C)C(C(=O)NCCCC)c1ccc(OCC(=O)O)c(C(=O)O)c1 (configuration not stated),AC50,[1],15.8 µM (inconclusive)
O=C(O)/C=C/C(=O)N1C/C(=C\c2ccccc2)C(=O)/C(=C/c2ccccc2)C1,GI50,[2],13.8 µM (inactive)
same,GI50,[3],1.82 µM (inactive)
same,GI50,[4],11.9 µM (inactive)
CC(=O)N1CC=CC1(CC(C)C)C(=O)NCc1ccc(C)o1 (configuration not stated),AC50,[1],15.8 µM (inconclusive)
COc1cc(C2c3cc4c(cc3[C@@H](Nc3ccccc3)C3COC(=O)[C@H]23)OCO4)cc(OC)c1O (some centres not stated),GI50,[2],0.0344 µM (active)
same,GI50,[3],< 0.0164 µM (active)
same,GI50,[4],< 0.01 µM (active)
CSC[S+]([O-])C[C@H](CO)NC(=O)/C=C/c1c(C)[nH]c(=O)[nH]c1=O (some centres not stated),GI50,[2],1 µM (active)
same,GI50,[3],1.31 µM (inactive)
same,GI50,[4],0.416 µM (active)
"C=CC(C1=CC(=O)C(OC)=CC1=O)c1ccc(O)cc1 (configuration not stated) [DALBERGIONE, 4-METHOXY-4'-HYDROXY-]",AC50,[1],25.1 µM (inconclusive)
COC(=O)[C@@]12OC[C@]34[C@H]([C@@H](O)[C@@H]1O)[C@@]1(C)CC(=O)C(O)=C(C)[C@@H]1C[C@H]3OC(=O)[C@H](OC(=O)/C=C(\C)C(C)C)[C@@H]24 [BRUCEANTIN],GI50,[2],0.0244 µM (active)
same,GI50,[3],0.02 µM (active)
same,GI50,[4],0.021 µM (active)
Cc1cc(O)c2c(=O)c3c(O)cc(O)c4c5c(O)cc(O)c6c(=O)c7c(O)cc(C)c8c1c2c(c34)c(c78)c65 [HYPERICIN],GI50,[2],49.2 µM (inactive)
same,GI50,[3],92.7 µM (inactive)
same,GI50,[4],11.9 µM (inactive)
CO[C@@H]1CN(C)C(=O)c2cc(NC(=O)c3nc4ccccc4s3)ccc2OC[C@@H](C)N(Cc2ccccc2)C[C@H]1C,AC50,[5],3.99 µM (active)
Nc1ccc(O)cc1 [4-AMINOPHENOL],AC50,[6],> 380 µM (inactive)
same,EC50,[7],> 380 µM (inconclusive)
same,AC50,[1],25.1 µM (inconclusive)
NC(c1ccccc1)c1csc(NC(=O)Nc2cccc(Cl)c2)n1 (configuration not stated),AC50,[8],21.1 µM (active)
same,AC50,[9],16.3 µM (active)
same,AC50,[10],28.8 µM (active)
same,AC50,[11],36.7 µM (active)
same,AC50,[12],50.9 µM (active)
Cc1nc(NCc2ccco2)c2c(C)c(C)sc2n1,EC50,[13],> 120 µM (not active)
same,EC50,[14],8.42 µM (active)
same,EC50,[15],> 120 µM (not active)
same,EC50,[16],1.22 µM (active)
same,AC50,[17],3.97 µM (active)
same,IC50,[18],> 80 µM (inactive)
Cc1ccccc1OCCCN1CCC(C(O)(c2ccccc2)c2ccccc2)CC1,AC50,[8],25.7 µM (active)
same,AC50,[9],22.6 µM (active)
same,AC50,[10],19.9 µM (active)
same,AC50,[11],18.5 µM (active)
same,AC50,[12],16.1 µM (active)
COc1ccc(N2CCN(C(=O)NC3CC(=O)N(c4ccc(OC)cc4)C3)CC2)cc1 (configuration not stated),IC50,[19],43.3 µM (active)
O=C(NC(NC(=S)Nc1ccccc1)C(Cl)(Cl)Cl)c1cccc(Cl)c1 (configuration not stated),EC50,[20],2.31 µM (active)
same,EC50,[21],> 60 µM (not active)
same,AC50,[17],4.73 µM (active)
same,AC50,[22],8.54 µM (active)
C=C(C)C(=O)/N=C(\N)NC#N,GI50,[2],10.4 µM (inactive)
same,GI50,[3],26.4 µM (inactive)
same,GI50,[4],3.72 µM (inactive)
CC1(C)C(=O)C2C[C@]3(O)C4=CC(=O)OC(c5ccoc5)[C@]4(C)CCC3[C@](C)(C2=O)C1CC(=O)O (some centres not stated),AC50,[1],25.1 µM (inconclusive)
COc1ccc(-c2cc(C(F)(F)F)nc(S(=O)(=O)CCCC(=O)Nc3cccc(O)c3)n2)cc1OC,EC50,[23],7.17 µM (active)
same,AC50,[6],162 µM (active)
same,EC50,[7],11.3 µM (active)
same,AC50,[8],24.2 µM (active)
same,AC50,[9],12.7 µM (active)
same,AC50,[10],11.8 µM (active)
same,AC50,[12],10.5 µM (active)
CCCCCOc1ccc(/C=N\c2ccc(CCc3ccc(/N=C/c4ccc(OCCCCC)cc4)cc3)cc2)cc1,GI50,[3],> 100 µM (inactive)
same,GI50,[4],> 100 µM (inactive)
CCCCNc1nc(C)nc2c1nc(-c1ccccc1)n2CCCCN(CC)CC,AC50,[1],12.6 µM (inconclusive)
CC(C)NC(=O)N1[C@H](CO)[C@@H](c2ccccc2)C12CN(Cc1ccc(Cl)cc1)C2,AC50,[5],4.74 µM (active)
c1ccc(-c2ccc3c(c2)NCCN3)cc1,EC50,[13],16.3 µM (active)
same,EC50,[14],25 µM (active)
same,EC50,[15],50.5 µM (active)
same,IC50,[19],7.54 µM (active)
CCCCN1Cc2c(nc3cc(-c4ccco4)nn3c2O)C1=O,IC50,[19],35.6 µM (active)
CN(C)CCNC(=O)c1cccc2c(=O)c3ccccc3oc12,GI50,[2],28 µM (inactive)
same,GI50,[3],19.7 µM (inactive)
same,GI50,[4],15 µM (inactive)
COC(=O)[C@@]1(C)C=C[C@@H](Cc2ccccc2)N1C(C)=O,AC50,[1],31.6 µM (inconclusive)
Cc1cccc(N2CCN(C(=O)c3c(-c4ccccc4Cl)noc3C)CC2)c1C,IC50,[18],> 80 µM (inactive)
Cc1occc1C(=O)N/N=C/C=C/c1ccc(N(C)C)cc1,IC50,[19],19.7 µM (active)
O=C(CCN1CCCCC1)C(=Cc1ccccc1)C(=O)CCN1CCCCC1,GI50,[2],25.9 µM (inactive)
same,GI50,[3],52.4 µM (inactive)
same,GI50,[4],15.6 µM (inactive)
